According to patent publication US20190352288A1, “MATRIX METALLOPROTEINASE (MMP) INHIBITORS AND METHODS OF USE THEREOF” (Foresee Pharmaceuticals Co., Ltd., priority 2018, published 2019):

Biological target: T1, recombinant human MMP-12 catalytic domain (Homo sapiens, UniProt P39900)
T1 construct: recombinant human MMP-12 catalytic domain; purchased Enzo BML-SE138
Assay: MMP-12 inhibitory assay (fluorogenic substrate cleavage)
Assay type: biochemical
Settings: readout at 30 minutes, 37° C., Table 1
Experimental: The inhibitory effect of compounds on the rate of cleaving fluorogenic MMP substrate (Enzo, BML-P128) by recombinant human MMP-12 catalytic domain (Enzo, BML-SE138) was carried out by methods known in the art. Briefly, to each well of a 96-well black opaque plate, all the reagents were sequentially added by pipetting, and the final reaction contained 4 nM of recombinant human MMP-12 catalytic domain, 4 μM of fluorogenic MMP substrate, and various concentrations (0.15 nM to 10,000 nM) of tested compound dilutions in HEPES buffer (pH 7.5) containing 10 mM of CaCl2), 0.01% Brij® 35 (polyoxyethylene (23) lauryl ether), and 0.1 mg/ml of BSA.
The enzyme and compounds were pre-incubated on a shaker to mix in wells. After an hour of mixing, fluorogenic substrate was added to each well. Reaction without enzyme was used as a blank control in the plate. The plate was then fed into a plate reader to measure fluorescence intensity at Excitation/Emission wavelengths of 340 nm/440 nm every 10 mins for at least 1 hour at 37° C. The IC50 of each compound in MMP-12 inhibition was determined by using a readout obtained at time point 30 minutes.

T1 sequence (P39900 106-268 limits assumed): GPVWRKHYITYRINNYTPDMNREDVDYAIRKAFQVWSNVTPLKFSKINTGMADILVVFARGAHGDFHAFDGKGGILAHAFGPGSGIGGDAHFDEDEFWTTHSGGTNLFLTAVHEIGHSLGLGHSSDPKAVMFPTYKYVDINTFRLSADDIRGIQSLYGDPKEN

Row | SMILES | IC50 [nM]
1 | Cc1cccc(COc2ccc(S(=O)(=O)c3ccncc3C3NC(=O)NC3=O)cc2)c1 (stereo not shown) [PC-6] | 100 to 1000
2 | Cc1cncc(COc2ccc(Sc3cnccc3C3NC(=O)NC3=O)cc2)c1 (stereo not shown) [PC-19] | 100 to 1000
3 | Cc1cccc(COc2ccc(Sc3ccccc3C3NC(=O)NC3=O)cc2)c1 (stereo not shown) [OC-1] | 10 to 100
4 | CNC(=O)c1cncc(COc2ccc(Sc3ccncc3C3NC(=O)NC3=O)cc2)c1 (stereo not shown) [PC-36] | 100 to 1000
5 | Cc1cccc(COc2ccc([S+]([O-])c3ccccc3C3NC(=O)NC3=O)cc2)c1 (stereo not shown) [OC-2] | 100 to 1000
6 | CNC(=O)c1cccc(COc2ccc(Sc3ccncc3C3NC(=O)NC3=O)cc2)c1 (stereo not shown) [PC-29] | 10 to 100
7 | CCCOc1cccc(COc2ccc(Sc3ccsc3C3NC(=O)NC3=O)cc2)c1 (stereo not shown) [TC1] | 100 to 1000
8 | Cc1cccc(COc2ccc(Sc3ncccc3C3NC(=O)NC3=O)cc2)c1 (stereo not shown) [PC-1] | 10 to 100
9 | Cc1cccc(COc2ccc(Sc3cccnc3C3NC(=O)NC3=O)cc2)c1 (stereo not shown) [PC-3] | 10 to 100
10 | CC(C)Oc1cccc(COc2ccc(Sc3ccsc3C3NC(=O)NC3=O)cc2)c1 (stereo not shown) [TC3] | 100 to 1000
11 | O=C1NC(=O)C(c2cnccc2Sc2ccc(OCc3cncc(CO)c3)cc2)N1 (stereo not shown) [PC-39] | 100 to 1000
12 | O=C1NC(=O)C(c2cnccc2Oc2ccc(OCc3cccc(CO)c3)cc2)N1 (stereo not shown) [PC-25] | 10 to 100
13 | O=C1NC(=O)C(c2cnccc2Oc2ccc(OCc3cccc(C(=O)O)c3)cc2)N1 (stereo not shown) [PC-23] | > 1000
14 | NC(=O)c1cncc(COc2ccc(Sc3ccncc3C3NC(=O)NC3=O)cc2)c1 (stereo not shown) [PC-34] | 10 to 100
15 | Cc1cccc(COc2ccc(S(=O)(=O)c3cc[n+](O)cc3C3NC(=O)NC3=O)cc2)c1 (stereo not shown) [OC-4] | > 1000
16 | NC(=O)c1ccc(COc2ccc(Sc3ccncc3C3NC(=O)NC3=O)cc2)cc1 (stereo not shown) [PC-37] | 100 to 1000

Results, then the compound that gave them:

Row | IC50 [nM] | SMILES
17 | 100 to 1000 | CC(C)COc1cc(COc2ccc(Sc3ccncc3C3NC(=O)NC3=O)cc2)ccn1 (stereo not shown) [PC-33]
18 | 10 to 100 | Cc1cc(COc2ccc(Sc3cc(C)ncc3C3NC(=O)NC3=O)cc2)ccn1 (stereo not shown) [PC-45]
19 | 100 to 1000 | Cc1cncc(COc2ccc(Sc3ccncc3C3NC(=O)NC3=O)cc2)c1 (stereo not shown) [PC-17]
20 | 10 to 100 | Cc1cc(COc2ccc(Sc3ccncc3C3NC(=O)NC3=O)c(C)c2)ccn1 (stereo not shown) [PC-42]
21 | 100 to 1000 | O=C1NC(=O)C(c2cnccc2Sc2ccc(OCc3ccnc(O)c3)cc2)N1 (stereo not shown) [PC-35]
22 | 10 to 100 | Cc1cc(COc2ccc(Oc3ccncc3C3NC(=O)NC3=O)cc2)ccn1 (stereo not shown) [PC-27]
23 | 10 to 100 | Cc1cccc(COc2ccc(Sc3ccncc3C3NC(=O)NC3=O)cc2)c1 (stereo not shown) [PC-2]
24 | 100 to 1000 | Cc1cc(COc2ccc(Sc3ccncc3C3NC(=O)N(C)C3=O)cc2)ccn1 (stereo not shown) [PC-41]
25 | 10 to 100 | CCOc1cc(COc2ccc(Sc3ccncc3C3NC(=O)NC3=O)cc2)ccn1 (stereo not shown) [PC-31]
26 | 10 to 100 | CC(C)Oc1cc(COc2ccc(Sc3ccncc3C3NC(=O)NC3=O)cc2)ccn1 (stereo not shown) [PC-32]
27 | 10 to 100 | NC(=O)c1cc(COc2ccc(Sc3ccncc3C3NC(=O)NC3=O)cc2)ccn1 (stereo not shown) [PC-60]
28 | 100 to 1000 | NC(=O)c1cc(COc2ccc(Sc3ccncc3C3NC(=O)NC3=O)cc2)ccn1 (stereo not shown) [PC-59]
